# Assay results reported in patent US4602018A, “Condensed as-triazine derivatives” (Egyt Gyogyszevegyeszeti Gyar, priority 1983, dated 1986).
# Like-named read-outs stand apart in the source and are kept apart here.
# Legend:
# Type in all cases: in vivo
# [1] = system: mice; assay: Acute toxicity on mice; conditions: p.o., 7 days observation, 10080 min
# Procedure: (§1) The test is carried out on male and female white mice belonging to the CFLP strain and weighing 18-22 g. The test compound is administered orally and the animals are observed for a period of 7 days. In the groups for each dose half of the animals are male and the other half are female. The animals are kept in a plastic box (39×12×12 cm) on scrapings litter at room temperature. The mice receive standard fodder and tap water ad libitum. The toxicity data are determined by the method of Litchfield-Wilcoxon.
# (§2) The test compound is administered in an aqueous solution.
# [2] = system: tetrabenazine ptosis; assay: Antagonism of tetrabenazine ptosis on mice, p.o.; conditions: for ED50: tetrabenazine 50 mg/kg i.p.
# [3] = system: tetrabenazine ptosis; assay: Antagonism of tetrabenazine ptosis on rats, p.o.
# Procedure: (3) ANTAGONISM OF TETRABENAZINE PTOSIS, ON MICE AND RATS, P.O. […] The results are evaluated as follows: on the basis of all the measured data an average ptosis is calculated for each group and the deviation from the average of the control group is expressed in percent (inhibition). The ED50 values are calculated from the data thus obtained.
# [4] = system: reserpine ptosis; assay: Antagonism of reserpine ptosis on rats, p.o.; conditions: for ED50: reserpine 2.5 mg./kg. s.c.
# Procedure: The animals showing ptosis are counted until the effect decreases. The evaluation is carried out as described in connection with the previous ptosis test (test 3).
# [5] = system: rats; assay: Acute toxicity on rats; conditions: p.o., 14 days observation, 20160 min
# [6] = system: aconitine-induced ECG changes; assay: animal or person; conditions: rats
# Procedure: The test is carried out according to the modified method of Marmo et al. The test animals are narcotized with ethyl urethane (1.2 g./kg. i.p.). Aconitine is administered intravenously in the form of a bolus injection in a dose of 75 μg./kg. The changes of ECG are followed in standard II outlet 5 minutes after the administration of aconitine. The changes observed are evaluated with the aid of a scale from 0 to 5 points. The test compound is administered either intravenously 2 minutes before the addition of aconitine, or orally 1 hour before the aconitine administration.
# [7] = system: tremorine-induced tremor; assay: Antitremorine effect on mice
# Procedure: 20 mg./kg. of tremorine are administered i.p. to mice whereupon after 45 minutes the induced characteristic tremor is registered. The test compounds are administered orally 1 hour before the addition of tremorine.
# [8] = Acute toxicity on mice; conditions: mouse, in vivo, po, 7 days observation
# Procedure: as §1, §2
# [9] = system: carrageenin oedema; assay: Antiinflammatory effect on rats (carrageenin paw oedema); conditions: for ED50: Rattus norvegicus, read-out: Oedema inhibitory effect ED50
# Procedure: Into the planar surface of the hind leg of rats weighing 150-180 g. 0.1 ml. of 1% carrageenin is injected. The volume of the paw is determined before and 3 hours after the administration of the irritating agent with a plethysmometer. The animals are pre-treated with the test compound and the carrier (control), respectively, for an hour. Because of the different solubility properties Tween 80 as auxiliary agent is used.
# [10] = Acute toxicity on rats; conditions: rat, in vivo, po, 14 days observation
# [11] = Mus musculus, po, read-out: ED50
# [12] = Rattus norvegicus, po, read-out: ED50
# [13] = 0.1 ml. of 1% carrageenin, 3 hours, pre-treated for an hour
# [14] = Rattus norvegicus, iv, i.v. 2 minutes before aconitine 75 μg./kg. i.v.
# [15] = Rattus norvegicus, po, p.o. 1 hour before aconitine 75 μg./kg. i.v.
smiles,measurement,setting,value
"OC1(c2ccc(Cl)cc2)NC=N[n+]2ccc3ccccc3c21 (centres unmarked) [Compound C, 1-(4-chloro-phenyl)-1-hydroxy-1,2-dihydro-as-triazino[6,1-a]isoquinolinium-bromide]",LD50,[1],590 mg/kg
same,Ther. index,[2],203
same,ED50,[2],2.9 mg/kg
same,ED50,[3],5.4 mg/kg
same,Ther. index,[3],191
same,Ther. index,[4],49.0
same,ED50,[4],21 mg/kg
same,LD50,[5],about 1030 mg/kg
"OC1(c2ccc(Cl)cc2)NC=N[n+]2ccc3ccccc3c21 (centres unmarked) [Compound B, 1-(4-chloro-phenyl)-1-hydroxy-1,2-dihydro-as-triazino[6,1-a]isoquinolinium-chloride]",LD50,[1],560 mg/kg
same,Ther. index,[2],1867
same,ED50,[2],0.3 mg/kg
same,ED50,[3],1.0 mg/kg
same,Ther. index,[3],1100
same,Ther. index,[4],39.3
same,ED50,[4],28 mg/kg
same,Ther. index,[6],27.5
same,ED50,[6]; i.v. 2 minutes before aconitine 75 μg./kg. i.v.,1.6 mg/kg
same,ED50,[6]; p.o. 1 hour before aconitine 75 μg./kg. i.v.,30 mg/kg
same,LD50,[5],about 1100 mg/kg
same,Ther. index,[7],93.3
same,ED50,"[7]; Mus musculus, po, p.o. 1 hour before tremorine 20 mg./kg. i.p.",6 mg/kg
"Clc1ccc(-c2ncn[n+]3ccc4ccccc4c23)cc1 [Reference compound D, 1-(4-chloro-phenyl)-as-triazino[6,1-a]isochinolinium-bromide, reference compound]",LD50 at 168 h,[8],600 mg/kg
same,ED50,[2]; [11],3.2 mg/kg
same,Ther. index,[3],179
same,ED50,[3]; [12],5.6 mg/kg
same,Ther. index,[4],16.7
same,ED50,[4]; [12],~60 mg/kg
same,Oedema inhibitory effect ED50,[9]; [13],no effect
same,Antitremorine effect ED50,[7]; p.o. 1 hour before tremorine 20 mg./kg. i.p.,inactive
"OC1(c2ccc(Cl)cc2)NC=N[n+]2ccc3ccccc3c21 (centres unmarked) [Compound A, 1-(4-chloro-phenyl)-1-hydroxy-1,2-dihydro-as-triazino[6,1-a]isoquinolinium-ethanesulfonate]",LD50 at 168 h,[8],410 mg/kg
same,Ther. index,[2],1367
same,ED50,[2],0.3 mg/kg
same,ED50,[3],0.3 mg/kg
same,Ther. index,[3],4333
same,Ther. index,[4],92.8
same,ED50,[4]; [12],14 mg/kg
same,ED50,[6]; [14],0.9 mg/kg
same,ED50,[6]; [15],40 mg/kg
same,Ther. index,[6],32.5
same,LD50 at 336 h,[10],1300 mg/kg
same,Ther. index,[9],53.1
same,ED50,[9]; [13],24.5 mg/kg
"CN(C)CCC=C1c2ccccc2CCc2ccccc21 [Amitriptyline, N,N-dimethyl-3-[dibenzo[a,d]-cycloheptadiene-5-ylidene]-propylamine, reference compound]",LD50 at 168 h,[8],225 mg/kg
same,ED50,[2]; [11],12 mg/kg
same,Ther. index,[3],46
same,Ther. index,[4],3.6
same,ED50,[4]; [12],~140 mg/kg
"CCCCC1C(=O)N(c2ccccc2)N(c2ccccc2)C1=O [Phenylbutazon, 4-butyl-1,2-diphenyl-3,5-pyrazolidine-dione]",Ther. index,[9],5.3
same,ED50,[9]; [13],~90 mg/kg
"CCN(CC)CC(=O)Nc1c(C)cccc1C [Lidocain, α-diethylamino-2,6-dimethyl-acetanilide, reference compound]",ED50,[6]; [14],4 mg/kg
same,ED50,[6]; [15],120 mg/kg
same,Antiarrhythmial effect (in words),[6]; i.v. and p.o.,inactive
same,Antiarrhythmial effect (percent in parentheses),"[6]; p.o., at 120 mg./kg.",3.5%
